These results are taken from patent US10071110B2, “Phosphonate compounds” (priority 1999, dated 2018).

As a reminder, the EC50 is the concentration that produces a half-maximal response.

Where two headings read alike, the source gives them in different places.

In data set [1] the test system is patients with steroid-induced osteoporosis. The data set is described as follows: Stimulation of bone formation in humans with steroid-induced osteoporosis. To be noted: oral 0.1 to 100 mg/kg/day, one month to one year, vs placebo. It counts as in vivo, human.
For data set [2], the system named is Human cytomegalovirus (HCMV). The data set is described as follows: HCMV antiviral assay, HCMV DNA quantified by DNA hybridization in MRC-5 cells. It counts as cell-based. The following applies: for Selectivity Index: CC50/EC50, Human CMV in MRC-5 (Table 2).
In data set [3] the test system is postmenopausal women. To be noted: oral 0.1 to 100 mg/kg/day, two to three years, vs placebo.
In data set [4] the test system is HSV-1. The data set is described as follows: HSV-1 antiviral assay, HSV DNA quantified by nucleic acid hybridization in MRC-5 cells. It counts as cell-based. The following applies: CC50/EC50 (Table 7).
Data set [5] deals with HT4-6C cells. The data set is described as follows: Cytotoxicity by the method of Hostetler et al. (HIV study). To be noted: Table 6.
Data set [6] has as its system MRC-5 human lung fibroblast cells. The data set is described as follows: Cytotoxicity of test compounds in vitro, visual estimate of 50% reduction in cell number. To be noted: MRC-5 cells.
The subject of data set [7] is Calvarial cells. The data set is described as follows: Dexamethasone-induced apoptosis in calvarial cells, trypan blue. The following applies: pretreatment at 10^−8 or greater for 1 hour, then 6 hours 10^−4 dexamethasone. It counts as cell-based, mice.
For data set [8], the system named is MLO-Y4 osteocytic cells. The following applies: at 10^−8 to 10^−5 M; 1 hour pretreatment, then 6 hours 10^−4 M dexamethasone.
Data set [9] concerns ovariectomized rats. To be noted: subcutaneous 0 to 8 mg/kg/day, four to twelve weeks, vs ovariectomized controls.
Data set [10] can be described thus: Cytotoxicity in CEM cells (CC50). The format is cell-based. To be noted: human; CEM cells (Table 1).
A short description of data set [11]: in vitro. To be noted: human.
Data set [12] can be described thus: in vitro. To be noted: African green monkey.
Data set [13] in a line: Cytotoxicity of test compounds in vitro, visual estimate of 50% reduction in cell number. The following applies: human, MRC-5 human lung fibroblast cells.
Data set [14] concerns HIV-1. To be noted: Human immunodeficiency virus 1, 72 h, read-out: EC50, in HIV-1 plaque reduction assay. In general terms: Plaque reduction counts the foci of infection that form in a cell layer.

Consider “1-O-octadecyloxypropyl-amino-olpadronate”, for which, in data set [1], the bone density entry is reported as “bone density is increased” and the fractures result is listed as “fractures are decreased”.

Take `CCCCCCCCCCCCCCCCOCCCOP(=O)(O)CO[C@H](CO)Cn1ccc(N)nc1=O` [HDP-CDV]: the “Selectivity Index” value in data set [2] was 5 × 10^6.

In the case of `CCCCCCCCCCCCCCCCCCOCCCOP(=O)(O)C(O)(CCCN)P(=O)(O)O` (stereo not drawn) [1-O-octadecyloxypropyl alendronate, 1-O-octadecyloxypropyl-alendronate], in data set [3], the fractures entry was “fewer fractures” and the “rate of reduction in bone density” value is “lesser rate of reduction in bone density than the placebo group”.

Take `CCCCCCCCCCCCCCCCCCOCCOP1(=O)COC(Cn2ccc(N)nc2=O)CO1` (stereo not drawn) [1-O-octadecylethanediol-2-cCDV]: the “Selectivity Index” value is on record as 1 × 10^6 in data set [2] and 40,000 in [4].

Regarding `CCCCCCCCCCCCCCCCCCOCCCOP1(=O)COC(Cn2ccc(N)nc2=O)CO1` (stereo not drawn) [1-O-octadecylpropanediol-3-cCDV], the “Selectivity Index” value is 1 × 10^6 in data set [2] and 970 in data set [4].

Turning to hexadecyloxypropyl-adefovir [HDP-ADV], the half-maximal effective concentration (EC50) in data set [2] (Human CMV replication in MRC-5 human lung fibroblasts, DNA reduction (Table 2), read-out: EC50) is 0.1 µM; in [2] (preliminary experiments (Table 1), MRC-5 cells, 5 days, read-out: HCMV EC50) it was 0.01 µM. In addition, the CC50 in data set [5] and in data set [6] (5 days (Table 2)) was 6.5 µM each time.

On to `CCCCCCCCCCCCCCCCOCCCOP(=O)(O)C(O)(CCCN)P(=O)(O)O` (stereo not drawn) [HDP-alendronate, 1-O-Hexadececylpropanediol-3-alendronate], for which, in data set [7], the “effect on dexamethasone-induced increase in % dead cells” value is “abolished the dexamethasone-induced increase in % dead cells”. Moreover, the “effect on dexamethasone-induced apoptosis (percentage of dead cells)” value in data set [8] is “inhibits dexamethasone-induced apoptosis”. Further, the “bone mass loss (ash weight of the femora)” value in data set [9] is on record as “less bone mass loss than the ovariectomized controls”.

Turning to `CCCCCCCCCCCCCCCCCCOCCCOP(=O)(O)CO[C@H](CO)Cn1ccc(N)nc1=O` [1-O-octadecylpropanediol-3-CDV], the “Selectivity Index” value in data set [2] was 1 × 10^6.

For `Nc1ccn(C[C@@H](CO)OCP(=O)(O)O)c(=O)n1` [CDV, cidofovir], the CC50 in data set [10] is 857 µM; in data set [11], 89.8 µM; in data set [12], > 100 µM; in data set [6] (as in Example 17 (Table 7)), > 1000 µM. In addition, the CC50 at 5 days in [13] is > 1000 µM.

`CCCCCCCCCCCCCCCCOP1(=O)COC(Cn2ccc(N)nc2=O)CO1` (stereo not drawn) [Hexadecyl-cCDV, hexadecyl-cCDV]: the “Selectivity Index” value in [2] was found to be 163.

`Nc1ccn(C[C@H]2COP(=O)(O)CO2)c(=O)n1` [cCDV, cyclic cidofovir]: the CC50 in [10] was > 1000 µM; in data set [11] it was > 100 µM; in data set [12] it was > 100 µM; in data set [6] (as in Example 17 (Table 7)) it was > 1000 µM. In [13], the CC50 at 5 days is > 1000 µM.

As for `CCCCCCCCCCCCCCCCCCOCCOP(=O)(O)COC(CO)Cn1ccc(N)nc1=O` (stereo not drawn) [1-O-octadecylethanediol-2-CDV], the “Selectivity Index” value in [4] was 105,000.

With `Cc1cn([C@H]2C[C@H](N=[N+]=[N-])[C@@H](CO)O2)c(=O)[nH]c1=O` [AZT, zidovudine], the EC50 in [14] was 0.007 µM.
